US20070155771A1, “Methods and means for treating protein conformational disorders” (priority 2003, published 2007)

Tests used:
[1] = test system: Drosophila HD model expressing the first 171 residues of huntingtin with 120 glutamines (120Q) in photoreceptors; test: Drosophila HD model, pseudopupil analysis of photoreceptor neurodegeneration; type: in vivo
Description: A Drosophila line y; w; gmr-Q120 was crossed to w; iso2; iso3 to obtain progeny heterozygous for the transgene gmr-Q120. Flies were allowed to mate on normal food for 2-3 days and then transferred to food containing 1 μM rapamycin (Sigma) or DMSO. After eclosion, flies were placed on food containing 1 μM rapamycin or DMSO. Flies were transferred to newly prepared food every day.
Pseudopupil analysis: Adult male flies were decapitated and the head was mounted onto a microscope slide using nail polish. Analysis was performed with an optical microscope using a 60× objective with the observer blinded to the identity of the slides. Approximately 75 ommatidia were evaluated for each group (approx. 15 ommatidia in 5 individuals). Each experiment was done twice. The frequency of ommatidia with different numbers of visible rhabdomeres was based on all visible photoreceptor neurons, irrespective of their shape or brightness. Flies were raised at 25° C. with 12/12-h light/dark-cycle, 70% humidity.
A Drosophila HD model that expresses the first 171 residues of huntingtin with 120 glutamines (120Q) in photoreceptors (Jackson, G. R., et al. Neuron 21, 633-642 (1998)) was used to test whether long-term mTOR inhibition with rapamycin would have beneficial effects in vivo. The mutant flies show photoreceptor neurodegeneration, a phenotype that is easily quantifiable using the pseudopupil technique (Franceschini, N. & Kirschfeld K. Kybernetik 9, 159-182 (1971)). No degeneration is seen in flies expressing analogous constructs with 20Q (wild-type transgenics). The compound eye of Drosophila comprises many ommatidia. An ommatidium normally contains eight photoreceptor neurons with light gathering parts called rhabdomeres, seven of which can be easily visualized using the pseudopupil technique. The number of visible rhabdomeres in each ommatidium decreases as a function of time when there is photoreceptor neurodegeneration, like in the 120Q fly lines.

[2] = test system: COS-7 cells expressing an exon 1 fragment of the HD gene with 74 glutamines (Q74); test: Aggregate formation and abnormal cell nuclei in transiently transfected COS-7 cells expressing Q74; type: cell-based, African green monkey; details: 24 hours post transfection; 0.2 μg/ml rapamycin
[3] = test system: human wild-type, A30P and A53T α-synuclein; test: α-Synuclein degradation in inducible PC12 cell lines (western blot), all forms; type: cell-based; details: for α-synuclein levels: induced 24 hours, doxycycline removed, drug 48 hours, cycling and differentiated cells, 0.2 mg/ml rapamycin, 10 mM lactacystin, 10 mM epoxomicin [sic]
Source text: (§1) Human α-synuclein with a HA tag at the N-terminus and a 6His tag at the C-terminus was amplified from pHM6α-synuclein constructs (Furlong, R. A. et a; 1 (2000) Biochem. J. 346, 577581) and inserted into pTRE2 hyg vector (Clontech) using Nhe I/Sal I sites. Constructs were confirmed by sequencing before use. The pTRE2 hygα-synuclein construct and pTettTS (Clontech) were cotransfected into PC12 TetOn cells (Clontech), using Lipofectamine (Invitrogen) and Plus Reagent (Invitrogen). Single colonies were isolated using cloning cylinders (Sigma) and cells were grown and tested for α-synuclein expression upon induction. Cell lines were subjected to a further round of purification from single colonies to ensure that lines were pure.
(§2) PC12 cells were grown in Dulbecco's modified eagle's medium (DMEM, Sigma) supplemented with 10% horse serum (Sigma), 5% fetal bovine serum (Sigma), 100 U/ml penicillin/streptomycin, 2 mM L-glutamine, […] G418 (Invitrogen) and […] hygromycin B (Calbiochem) at 37° C., 10% CO2. To induce differentiation, cells were grown in media containing 1% horse serum and 100 ng/ml nerve growth factor (2.5S, Upstate Biotechnology) and incubated for about 5 days. Cells were induced to express synuclein with […] doxycycline (Sigma).
(§3) Cells were induced for 24 hours and then washed twice with media to remove doxycycline. Then cells were incubated in […] media containing either 10 mM 3-methyladenine (3MA, Sigma), 200 nM bafilomycin A1 (Sigma), […] rapamycin (Sigma), […] lactacystin (Sigma), […] epoxomicin (Affinity Research Products Ltd) or carrier controls (water or DMSO (Sigma)). 3MA and lactacystin were made up in water and rapamycin, epoxomicin and bafilomycin were dissolved in DMSO.
(§4) After 24 hours the media was replaced with fresh media plus drug and after a further 24 hours cell pellets were collected and stored at −80° C. until required.
Cell pellets were collected and stored at −80° C. until needed. Cells were lysed on ice in lysis buffer: 1% TritonX100, 20 mM TRIS pH7.5, 137 mM NaCl, 1 mM EGTA, 10% glycerol, 1.5 mM MgCl2 and protease inhibitor cocktail (Complete, Roche).
Samples were then mixed with loading buffer: 62.5 mM TRIS pH 6.8, 2% SDS, 10% glycerol, 0.05% bromophenol blue, 100 mM dithiothreitol and 700 mM β-mercaptoethanol and boiled before loading onto 14% denaturing polyacrylamide gels.
(§5) Each lane was loaded with protein from a similar number of cells, based on cell counting at the time of seeding. Proteins were transferred onto Hybond ECL nitrocellulose membrane (Amersham). α-Synuclein was detected with an antiHA monoclonal antibody (Covance) at 1:1000 dilution with 4-18 hours incubation. HRP conjugated antimouse antibody (Amersham) at 1:2000 dilution was then added to blots and antibody was detected using ECL blotting reagents (Amersham) and Hyperfilm ECL (Amersham). Blots were stripped and then reprobed for α-tubulin (Sigma) at 1:1000 dilution.
PC12 cell lines as described above (i.e. mitotic and neuronally differentiated wild-type, A53T and A30P PC12 lines) were induced for 24 hours, then doxycycline was removed and the drugs were added for 48 hours. The trends we observed were similar in cells treated with drugs for 24 and 72 hours.

[4] = test system: human A30P α-synuclein; test: α-Synuclein degradation in inducible PC12 cell lines (western blot), A30P; type: cell-based, rat; details: 10 mM 3MA, 200 nM bafilomycin A1; for α-synuclein levels, mitotic A30P lines: 48 hours; for fold increase in α-synuclein levels (densitometry as a function of tubulin) vs control cells, A30P: +/− SE, significant
Source text: as §1, §2, §3, §4
(§6) Cell pellets were collected and stored at −80° C. until needed. Cells were lysed on ice in lysis buffer: 1% TritonX100, 20 mM TRIS pH7.5, 137 mM NaCl, 1 mM EGTA, 10% glycerol, 1.5 mM MgCl2 and protease inhibitor cocktail (Complete, Roche). […]
as §5, with “Blots were stripped and then reprobed for α-tubulin (Sigma) at 1:1000 dilution.” left out

[5] = test system: human A53T α-synuclein; test: α-Synuclein degradation in inducible PC12 cell lines (western blot), A53T; type: cell-based, rat; details: 10 mM 3MA, 200 nM bafilomycin A1; 48 hours
Source text: as §1, with “pure. […]” for “pure.”
as §5, with “Blots were stripped and then reprobed for α-tubulin (Sigma) at 1:1000 dilution.” left out

[6] = test system: human wild-type α-synuclein; test: α-Synuclein degradation in inducible PC12 cell lines (western blot), wildtype; type: cell-based, rat; details: 10 mM 3MA, 200 nM bafilomycin A1; for α-synuclein levels, mitotic wildtype lines: 48 hours; for fold increase in α-synuclein levels (densitometry as a function of tubulin) vs control cells, wildtype: +/− SE, did not reach significance
Source text: as §1, §2, §3, §4, §6
as §5, with “Blots were stripped and then reprobed for α-tubulin (Sigma) at 1:1000 dilution.” left out

Molecule | 120Q-induced photoreceptor degeneration ([1]; 1 μM rapamycin in food from larval stage into adulthood, vs DMSO) | number of visible rhabdomeres per ommatidium ([1]; 1 μM rapamycin in food, two and three days after eclosion, p<0.0001) | frequency of ommatidia with seven rhabdomeres ([1]; HD 120Q flies, 2 and 3 days post-eclosion) | cell death in Q74-expressing cells [2] | proportions of cells with Q74 aggregates [2] | α-synuclein levels [3] | α-synuclein levels, mitotic A30P lines [4] | fold increase in α-synuclein levels (densitometry as a function of tubulin) vs control cells, A30P [4] [fold] | α-synuclein levels in the A53T lines [5] | α-synuclein levels, mitotic wildtype lines [6] | fold increase in α-synuclein levels (densitometry as a function of tubulin) vs control cells, wildtype [6] [fold] | cell death or overt aggregate formation ([3]; proteasome inhibitors for 48 hours)
rapamycin | dramatically rescued | significantly increased | dramatically increases | reduced | reduced | significantly reduce | – | – | – | – | – | –
Cn1cnc(N)c2ncnc1-2 [3-MA, 3-methyl adenine] | – | – | – | – | – | – | slight changes, at best | 1.13 | obvious increase | slight changes, at best | 1.48 | –
CO/C1=C\C(C)=C\[C@@H](C)[C@@H](O)[C@@H](C)C/C(C)=C/C=C/[C@H](OC)[C@@H]([C@@H](C)[C@@H](O)[C@H](C)[C@@]2(O)C[C@@H](O)[C@H](C)[C@@H](C(C)C)O2)OC1=O [BafA1, Bafilomycin A1] | – | – | – | – | – | – | slight changes, at best | 1.19 | obvious increase | slight changes, at best | 1.12 | –
CC[C@H](C)[C@H](NC(=O)[C@H]([C@@H](C)CC)N(C)C(C)=O)C(=O)N[C@H](C(=O)N[C@@H](CC(C)C)C(=O)[C@@]1(C)CO1)[C@@H](C)O [epoxomicin] | – | – | – | – | – | increase | – | – | – | – | – | did not cause increased cell death or overt aggregate formation
